Assay results reported in PubChem BioAssay (NCI).
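Dose response: 5 concentrations. Exposure: 48 h. Format: 96-well plates. Endpoint: linear interpolation; highest concentration if not reached. GI50 is the concentration that inhibits growth by half. TGI: total growth inhibition.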

Legend:
Experiment in all cases: growth of human tumour cells (NCI), 48 h
MDA-MB-435 = tested on: MDA-MB-435
SR leukemia = tested on: SR leukemia
NCI-H226 lung = tested on: NCI-H226 lung
UACC-62 melanoma = tested on: UACC-62 melanoma
SF-268 CNS = tested on: SF-268 CNS
OVCAR-4 ovarian = tested on: OVCAR-4 ovarian
K-562 leukemia = tested on: K-562 leukemia
CCRF-CEM leukemia = tested on: CCRF-CEM leukemia
RPMI-8226 leukemia = tested on: RPMI-8226 leukemia
SF-539 CNS = tested on: SF-539 CNS
SK-MEL-2 melanoma = tested on: SK-MEL-2 melanoma
A549 NSCLC = tested on: A549 NSCLC
SNB-19 CNS = tested on: SNB-19 CNS
UACC-257 melanoma = tested on: UACC-257 melanoma
SNB-75 CNS = tested on: SNB-75 CNS
PC-3 prostate = tested on: PC-3 prostate
SN12C renal = tested on: SN12C renal
HCT-116 colon = tested on: HCT-116 colon
TK-10 renal = tested on: TK-10 renal
NCI-H460 lung = tested on: NCI-H460 lung
HS 578T breast = tested on: HS 578T breast
HCC-2998 colon = tested on: HCC-2998 colon
IGROV1 ovarian = tested on: IGROV1 ovarian
EKVX NSCLC = tested on: EKVX NSCLC
CAKI-1 renal = tested on: CAKI-1 renal
SF-295 CNS = tested on: SF-295 CNS
T-47D breast = tested on: T-47D breast
NCI-H23 lung = tested on: NCI-H23 lung
SK-MEL-28 melanoma = tested on: SK-MEL-28 melanoma
HL-60(TB) leukemia = tested on: HL-60(TB) leukemia
UO-31 renal = tested on: UO-31 renal
MALME-3M melanoma = tested on: MALME-3M melanoma
COLO 205 colon = tested on: COLO 205 colon
ACHN renal = tested on: ACHN renal
RXF 393 renal = tested on: RXF 393 renal
OVCAR-5 ovarian = tested on: OVCAR-5 ovarian
DU-145 prostate = tested on: DU-145 prostate
HCT-15 colon = tested on: HCT-15 colon
HOP-92 NSCLC = tested on: HOP-92 NSCLC
OVCAR-8 ovarian = tested on: OVCAR-8 ovarian
SK-MEL-5 melanoma = tested on: SK-MEL-5 melanoma
LOX IMVI melanoma = tested on: LOX IMVI melanoma
KM12 colon = tested on: KM12 colon
BT-549 breast = tested on: BT-549 breast
M14 melanoma = tested on: M14 melanoma
NCI-H522 lung = tested on: NCI-H522 lung
MCF7 breast = tested on: MCF7 breast
OVCAR-3 ovarian = tested on: OVCAR-3 ovarian
MDA-MB-468 breast = tested on: MDA-MB-468 breast
U251 CNS = tested on: U251 CNS
SW-620 colon = tested on: SW-620 colon
MDA-MB-231 breast = tested on: MDA-MB-231 breast
SK-OV-3 ovarian = tested on: SK-OV-3 ovarian
786-0 renal = tested on: 786-0 renal
A498 renal = tested on: A498 renal
MOLT-4 leukemia = tested on: MOLT-4 leukemia
HOP-62 NSCLC = tested on: HOP-62 NSCLC
HT29 colon = tested on: HT29 colon

## O=C(/C=C/c1cccc(OCc2ccc(F)cc2)c1)c1nc2ccccc2[nH]1
MDA-MB-435
  GI50: 21.2 µM
  TGI: 59.9 µM
SR leukemia
  GI50: 4.68 µM
  TGI: > 100 µM
NCI-H226 lung
  GI50: 51 µM
  TGI: > 100 µM
UACC-62 melanoma
  GI50: 18.7 µM
  TGI: > 100 µM
SF-268 CNS
  GI50: 37.7 µM
  TGI: > 100 µM
OVCAR-4 ovarian
  GI50: 66.5 µM
  TGI: > 100 µM
K-562 leukemia
  GI50: 8.34 µM
  TGI: 78.8 µM
CCRF-CEM leukemia
  GI50: 10.9 µM
  TGI: > 100 µM
RPMI-8226 leukemia
  GI50: 3.09 µM
  TGI: 10.8 µM
SF-539 CNS
  GI50: 17.6 µM
  TGI: 32.2 µM
SK-MEL-2 melanoma
  GI50: 81.3 µM
  TGI: > 100 µM
A549 NSCLC
  GI50: 65.1 µM
  TGI: > 100 µM
SNB-19 CNS
  GI50: 25.3 µM
  TGI: > 100 µM
UACC-257 melanoma
  GI50: 66.2 µM
  TGI: > 100 µM
SNB-75 CNS
  GI50: 34.2 µM
  TGI: > 100 µM
PC-3 prostate
  GI50: 27.1 µM
  TGI: > 100 µM
SN12C renal
  GI50: 62.9 µM
  TGI: > 100 µM
HCT-116 colon
  GI50: 11.9 µM
  TGI: 31.4 µM
TK-10 renal
  GI50: 35.1 µM
  TGI: > 100 µM
NCI-H460 lung
  GI50: 34.8 µM
  TGI: > 100 µM
HS 578T breast
  GI50: 25.9 µM
  TGI: 95.7 µM
HCC-2998 colon
  GI50: 15.5 µM
  TGI: 30 µM
IGROV1 ovarian
  GI50: 21.9 µM
  TGI: 66.6 µM
EKVX NSCLC
  GI50: 41.3 µM
  TGI: > 100 µM
CAKI-1 renal
  GI50: 24.5 µM
  TGI: > 100 µM
SF-295 CNS
  GI50: 32.7 µM
  TGI: > 100 µM
T-47D breast
  GI50: 29.2 µM
  TGI: > 100 µM
NCI-H23 lung
  GI50: 20.5 µM
  TGI: 57.1 µM
SK-MEL-28 melanoma
  GI50: 21.9 µM
  TGI: 61.2 µM
HL-60(TB) leukemia
  GI50: 19.5 µM
  TGI: 62.4 µM
UO-31 renal
  GI50: 13.4 µM
  TGI: 29 µM
MALME-3M melanoma
  GI50: 69.4 µM
  TGI: > 100 µM
COLO 205 colon
  GI50: 39.8 µM
  TGI: > 100 µM
ACHN renal
  GI50: 47 µM
  TGI: > 100 µM
RXF 393 renal
  GI50: 15 µM
  TGI: 31.2 µM
OVCAR-5 ovarian
  GI50: 29.3 µM
  TGI: > 100 µM
DU-145 prostate
  GI50: 29.5 µM
  TGI: > 100 µM
HCT-15 colon
  GI50: 13 µM
  TGI: 28.6 µM
HOP-92 NSCLC
  GI50: 8.64 µM
  TGI: 67.5 µM
OVCAR-8 ovarian
  GI50: 34.4 µM
  TGI: > 100 µM
SK-MEL-5 melanoma
  GI50: 31.7 µM
  TGI: > 100 µM
LOX IMVI melanoma
  GI50: 11.4 µM
  TGI: 25.4 µM
KM12 colon
  GI50: 13.5 µM
  TGI: 65.9 µM
BT-549 breast
  GI50: 18.4 µM
  TGI: 46.4 µM
M14 melanoma
  GI50: 25.5 µM
  TGI: 83.6 µM
NCI-H522 lung
  GI50: 27.5 µM
  TGI: > 100 µM
MCF7 breast
  GI50: 4.52 µM
  TGI: 32.5 µM
OVCAR-3 ovarian
  GI50: 13.4 µM
  TGI: 37.6 µM
MDA-MB-468 breast
  GI50: 15 µM
  TGI: 32.3 µM
U251 CNS
  GI50: 13.5 µM
  TGI: 35.7 µM
SW-620 colon
  GI50: 12.2 µM
  TGI: 34.3 µM
MDA-MB-231 breast
  GI50: 18.4 µM
  TGI: 47.8 µM
SK-OV-3 ovarian
  GI50: > 100 µM
  TGI: > 100 µM
786-0 renal
  GI50: 18.5 µM
  TGI: 45.9 µM
A498 renal
  GI50: > 100 µM
  TGI: > 100 µM
MOLT-4 leukemia
  GI50: 21.9 µM
  TGI: > 100 µM
HOP-62 NSCLC
  GI50: 41.5 µM
  TGI: > 100 µM
HT29 colon
  GI50: 18.4 µM
  TGI: 40.1 µM
